# Assay results from patent US20110077294A1, “R-(-) / S-(+)-7-[3-N SUBSTITUTED AMINO-2 HYDROXYPROPOXY] FLAVONES” (priority 2006, published 2011).
# Experiments:
# Assay type in all cases: in vivo
# [1] = test system: C57BL/KsBom-db/db mice; assay: Blood glucose profile of db/db mice during daily treatment (antihyperglycemic activity); conditions: for Blood glucose % change compared to control, day 1: day 1, vs sham; for Blood glucose % change compared to control, day 2: day 2, vs sham; for Blood glucose % change compared to control, day 3: day 3, vs sham; for Blood glucose % change compared to control, day 4: day 4, vs sham; for Blood glucose % change compared to control, day 5: day 5, vs sham; for Blood glucose % change compared to control, day 6: day 6, vs sham; for Blood glucose % change compared to control, day 7: day 7, vs sham; for Blood glucose % change compared to control, day 8: day 8, vs sham; for Blood glucose % change compared to control, day 9: day 9, vs sham
# Procedure: (§1) C57BL/KsBom-db/db mice (12-18 weeks old), weighing around 35+g bred in the animal house of CDRI, Lucknow, were used in the present experiments. The mice were housed in groups of 3 to 5 (same sex) in a room controlled for temperature (23±2.0 ° C.) and 12/12 hours light/dark cycle (lights on at 6.00 am). Body weight of each animal was measured daily from day 1 to day 10 of the experiment. All animals had free access to fresh water and normal pellet diet except on the day of the postprandial protocol (day 6) and during the overnight fast before the OGTT on day 10. The animals always had access to water during experimental periods. Blood glucose was checked every morning up till day 10. On day 10 an oral glucose tolerance test (OGTT) was performed after an overnight fasting. Blood glucose was measured at −30.0 min and test compounds were administered. The blood glucose was again measured at 0 min just post treatment and at this juncture glucose solution was given at a dose of 3 gm/kg to all the groups including the vehicle treated group. The blood glucose levels were checked at 30 min, 60 min, 90 min and 120 min post glucose administration. The data was analyzed for its significance on Prism software.
# [2] = test system: C57BL/KsBom-db/db mice; assay: Serum lipid profile of treated db/db mice (antidyslipidemic activity); conditions: 25 mg/kg; for Cholesterol % change compared to control / HDL-Chol % change compared to control / Triglycerides % change compared to control: vs sham
# Procedure: as §1
# [3] = test system: C57BL/KsBom-db/db mice; assay: Oral glucose tolerance test (OGTT) on day 10 in db/db mice; conditions: 25 mg/kg; for Blood glucose profile, 0 min post glucose load / Blood glucose % change compared to control, 0 min post glucose load: OGTT day 10, 0 min; for Blood glucose % change compared to control, 0 min post glucose load / Blood glucose % change compared to control, 30 min post glucose load / Blood glucose % change compared to control, 60 min post glucose load / Blood glucose % change compared to control, 90 min post glucose load / Blood glucose % change compared to control, 120 min post glucose load / Blood glucose % change compared to control, −30 min post glucose load: vs sham; for Blood glucose profile, 30 min post glucose load / Blood glucose % change compared to control, 30 min post glucose load: OGTT day 10, 30 min; for Blood glucose profile, 60 min post glucose load / Blood glucose % change compared to control, 60 min post glucose load: OGTT day 10, 60 min; for Blood glucose profile, 90 min post glucose load / Blood glucose % change compared to control, 90 min post glucose load: OGTT day 10, 90 min; for Blood glucose profile, 120 min post glucose load / Blood glucose % change compared to control, 120 min post glucose load: OGTT day 10, 120 min; for Blood glucose profile, −30 min post glucose load / Blood glucose % change compared to control, −30 min post glucose load: OGTT day 10, −30 min
# Procedure: as §1
# [4] = test system: C57BL/KsBom-db/db mice; assay: Serum lipid profile of treated db/db mice (antidyslipidemic activity); conditions: db/db mice, test dose 25 mg/kg
structure (smiles),measurement,setting,value
"CC(C)NCC(O)COc1ccc2c(=O)cc(-c3cc(O)cc(O)c3)oc2c1 (stereo in doubt) [S-002-857 (R), (R)-(−)-7-(2-Hydroxy-3-isopropylaminopropoxy)-3′,5′-dihydroxy flavone]",blood glucose profile compared to sham treated (in words),[1]; 25 mg/kg,marginal fall in blood glucose profile
same,"Blood glucose, day 1 post treatment",[1]; 25 mg/kg,12.5 ± 2.55 mM
same,"Blood glucose % change compared to control, day 1",[1]; 25 mg/kg,0.0%
same,"Blood glucose, day 2 post treatment",[1]; 25 mg/kg,12.3 ± 2.67 mM
same,"Blood glucose % change compared to control, day 2",[1]; 25 mg/kg,−1.25%
same,"Blood glucose, day 3 post treatment",[1]; 25 mg/kg,12.1 ± 2.02 mM
same,"Blood glucose % change compared to control, day 3",[1]; 25 mg/kg,−3.28%
same,"Blood glucose, day 4 post treatment",[1]; 25 mg/kg,11.5 ± 1.86 mM
same,"Blood glucose % change compared to control, day 4",[1]; 25 mg/kg,−11.5%
same,"Blood glucose, day 5 post treatment",[1]; 25 mg/kg,11.9 ± 2.74 mM
same,"Blood glucose % change compared to control, day 5",[1]; 25 mg/kg,−13.1%
same,"Blood glucose, day 6 post treatment",[1]; 25 mg/kg,11.6 ± 2.73 mM
same,"Blood glucose % change compared to control, day 6",[1]; 25 mg/kg,−10.7%
same,"Blood glucose, day 7 post treatment",[1]; 25 mg/kg,11.7 ± 1.78 mM
same,"Blood glucose % change compared to control, day 7",[1]; 25 mg/kg,−22.0%
same,"Blood glucose, day 8 post treatment",[1]; 25 mg/kg,11.0 ± 0.35 mM
same,"Blood glucose % change compared to control, day 8",[1]; 25 mg/kg,−13.4%
same,"Blood glucose, day 9 post treatment",[1]; 25 mg/kg,11.5 ± 1.00 mM
same,"Blood glucose % change compared to control, day 9",[1]; 25 mg/kg,−14.0%
same,"Blood glucose, day 10 post treatment","[1]; 25 mg/kg, day 10",11.9 ± 5.21 mM
same,"Blood glucose % change compared to control, day 10","[1]; 25 mg/kg, day 10, vs sham",−8.30%
same,Serum lipid profile: Cholesterol,[2],160 ± 6.66 mg/dL
same,Serum lipid profile: HDL-Chol,[2],59.0 ± 2.65 mg/dL
same,Serum lipid profile: Triglycerides,[2],130 ± 3.06 mg/dL
same,"serum cholesterol, triglycerides (lipid profile) compared to sham treated (in words)",[2],no statistically significant difference
same,Cholesterol % change compared to control,[2],−6.18%
same,HDL-Chol % change compared to control,[2],+5.35%
same,Triglycerides % change compared to control,[2],−1.72%
same,oral glucose tolerance compared to sham treated (in words),[3],slight improvement in glucose tolerance
same,"Blood glucose profile, 0 min post glucose load",[3],16.3 ± 3.91 mM
same,"Blood glucose % change compared to control, 0 min post glucose load",[3],−7.05%
same,"Blood glucose profile, 30 min post glucose load",[3],27.6 ± 1.53 mM
same,"Blood glucose % change compared to control, 30 min post glucose load",[3],−16.7%
same,"Blood glucose profile, 60 min post glucose load",[3],24.4 ± 2.99 mM
same,"Blood glucose % change compared to control, 60 min post glucose load",[3],−10.0%
same,"Blood glucose profile, 90 min post glucose load",[3],20.6 ± 2.08 mM
same,"Blood glucose % change compared to control, 90 min post glucose load",[3],−7.39%
same,"Blood glucose profile, 120 min post glucose load",[3],16.0 ± 1.73 mM
same,"Blood glucose % change compared to control, 120 min post glucose load",[3],−14.3%
same,"Blood glucose profile, −30 min post glucose load",[3],11.8 ± 5.21 mM
same,"Blood glucose % change compared to control, −30 min post glucose load",[3],−8.31%
"CC(C)(C)NC[C@@H](O)COc1ccc2c(=O)cc(-c3cc(OCc4ccccc4)cc(OCc4ccccc4)c3)oc2c1 [S-002-853 (R), (R)-(−)-7-(3-tert-butylamino-2-hydroxypropoxy)-3′,5′-dibenzyloxyflavone]",antihyperglycemic and antidyslipidemic/antihyperlipidemic activity (in words),[1]; 25 mg/kg,insignificant antihyperglycemic or antihyperlipidemic effects
same,blood glucose profile compared to sham treated (in words),[1]; 25 mg/kg,no significant difference in the blood glucose profile between the two groups at any day
same,"Blood glucose, day 1 post treatment",[1]; 25 mg/kg,12.0 ± 2.52 mM
same,"Blood glucose % change compared to control, day 1",[1]; 25 mg/kg,+1.1%
same,"Blood glucose, day 2 post treatment",[1]; 25 mg/kg,12.4 ± 2.65 mM
same,"Blood glucose % change compared to control, day 2",[1]; 25 mg/kg,−31.9%
same,"Blood glucose, day 3 post treatment",[1]; 25 mg/kg,10.3 ± 1.33 mM
same,"Blood glucose % change compared to control, day 3",[1]; 25 mg/kg,−24.1%
same,"Blood glucose, day 4 post treatment",[1]; 25 mg/kg,13.3 ± 4.61 mM
same,"Blood glucose % change compared to control, day 4",[1]; 25 mg/kg,−18.1%
same,"Blood glucose, day 5 post treatment",[1]; 25 mg/kg,12.3 ± 4.32 mM
same,"Blood glucose % change compared to control, day 5",[1]; 25 mg/kg,−24.0%
same,"Blood glucose, day 6 post treatment",[1]; 25 mg/kg,12.1 ± 3.82 mM
same,"Blood glucose % change compared to control, day 6",[1]; 25 mg/kg,−19.8%
same,"Blood glucose, day 7 post treatment",[1]; 25 mg/kg,14.5 ± 5.49 mM
same,"Blood glucose % change compared to control, day 7",[1]; 25 mg/kg,−31.9%
same,"Blood glucose, day 8 post treatment",[1]; 25 mg/kg,13.4 ± 4.54 mM
same,"Blood glucose % change compared to control, day 8",[1]; 25 mg/kg,−35.4%
same,"Blood glucose, day 9 post treatment",[1]; 25 mg/kg,13.5 ± 4.66 mM
same,"Blood glucose % change compared to control, day 9",[1]; 25 mg/kg,−38.3%
same,Comparative antihyperglycemic activity: Average Fall,"[1]; test dose 25 mg/kg, day given in brackets",38.3%
same,Comparative antihyperlipidemic activity: HDL-C,[4],+8.06^ns
same,Comparative antihyperlipidemic activity: T-Chol,[4],−3.72^ns
same,Comparative antihyperlipidemic activity: TG,[4],−9.72^ns
same,HDL-cholesterol levels compared to sham treated (in words),[2],no significant difference in the HDL-cholesterol levels
same,Serum lipid profile: Cholesterol,[2],144.0 ± 7.37 mg/dL
same,Serum lipid profile: HDL-Chol,[2],58.0 ± 6.24 mg/dL
same,Serum lipid profile: Triglycerides,[2],132.0 ± 11.5 mg/dL
same,"serum cholesterol, triglycerides (lipid profile) compared to sham treated (in words)",[2],no significant lowering in either the case of serum cholesterol or triglycerides
same,Cholesterol % change compared to control,[2],−3.72%
same,HDL-Chol % change compared to control,[2],+8.06%
same,Triglycerides % change compared to control,[2],−9.72%
same,oral glucose tolerance compared to sham treated (in words),[3],no difference in oral glucose tolerance curve
same,"Blood glucose profile, 0 min post glucose load",[3],20.3 ± 4.74 mM
same,"Blood glucose % change compared to control, 0 min post glucose load",[3],−3.30%
same,"Blood glucose profile, 30 min post glucose load",[3],34.3 ± 16.9 mM
same,"Blood glucose % change compared to control, 30 min post glucose load",[3],+3.70%
same,"Blood glucose profile, 60 min post glucose load",[3],25.9 ± 9.75 mM
same,"Blood glucose % change compared to control, 60 min post glucose load",[3],0.00%
same,"Blood glucose profile, 90 min post glucose load",[3],24.5 ± 9.13 mM
same,"Blood glucose % change compared to control, 90 min post glucose load",[3],+17.0%
same,"Blood glucose profile, 120 min post glucose load",[3],23.0 ± 10.0 mM
same,"Blood glucose % change compared to control, 120 min post glucose load",[3],+24.9%
same,"Blood glucose profile, −30 min post glucose load",[3],13.6 ± 0.46 mM
same,"Blood glucose % change compared to control, −30 min post glucose load",[3],17.4%
